Where two headings read alike, the source gives them in different places.
Columns and labels:
CAL 27 = assay: MTT viability assay; format: cell-based, human
Experimental: (§1) A colorimetric 3-(4,5-dimethylthiazolyl)-2,5-diphenyltetrazolium bromide (MTT) cell metabolic activity assay was used to assess the cytotoxicity of complexes 3 and 4. The cells (described above) were cultured under standard conditions. Cells were seeded in 96-well plates at a density of 10,000 cells per well (200 μL) and allowed to grow for 24 h. The medium was then replaced with medium containing complex 3 or 4 at a concentration ranging from 0 to 200 μM, and the cells were incubated for an additional 24, 48, and 72 h. Subsequently, the medium was replaced with MTT solution, consisting of yellow tetrazolium dye 3-(4,5-dimethylthiazol-2-yl)-2,5-diphenyltetrazolium bromide (Sigma-Aldrich, Merck, Germany), and incubated for 2 h at 37°C. The dye was then removed, and the resulting purple formazan formed in viable cells was dissolved in DMSO, followed by shaking for 30 s. Absorbance was measured at 570 nm using an […] 200 PRO microplate reader (TECAN, Männedorf, Switzerland). All experiments were performed in quadruplicate and repeated three times.
(§2) The cell inhibitory concentration (IC) was calculated using the equation IC = (Acomplex3/complex4 well/mean Acontrol wells) × 100%. The half-maximal inhibitory concentration (IC50) was determined from dose–response curves using GraphPad Prism 10 (GraphPad Software Inc., La Jolla, CA, USA). The selectivity index toward cancer cells was calculated as a ratio of the average IC50 value for HGF to the IC50 value for the corresponding cancer cell line.

Hep-2 [1] = assay: MTT viability assay; format: cell-based, human
Experimental: as §1, §2

KB [2] = assay: MTT viability assay; format: cell-based, human
Experimental: as §1, §2

SCC-9 [3] = assay: MTT viability assay; format: cell-based, human
Experimental: as §1, §2

TR146 [4] = assay: MTT viability assay; format: cell-based, human
Experimental: as §1, §2

Detroit 562 = assay: Wound healing assay; format: cell-based, human; conditions: IC25 concentration, area closed
Experimental: (§3) The wound healing activity of complexes 3 and 4 was evaluated using the ibidi Culture-Insert 2 Well in a μ-dish. Cells were plated by applying 70 μL of cell suspension at a density of 50,000 cells into both wells of the Culture-Insert 2 Well and grown over the weekend. Once confluency was achieved, sterile tweezers were used to detach the Culture-Insert 2 Well from the μ-dish. The cell layer was then gently washed with PBS. Subsequently, the cell layer was treated with medium containing complex 3 or 4 at the IC25 concentration, and wound closure was observed and photographed using an inverted light microscope (0–55 h of incubation). Experiments were performed in four independent replicates.
(§4) An in vitro wound healing assay was performed to determine the effect of complex 3 or 4 on cell migration. The area of the wound bordered by a monolayer of cells was measured using ImageJ software. Wound closure was monitored from 0 to 55 h. […] Microscope images after 24 h for all cell lines, as well as 55 h, can be seen in Supplementary Figure S7. […] The stained wound healing area after 55 h is shown in Supplementary Figure S10.

FaDu = assay: Wound healing assay; format: cell-based, human; conditions: IC25 concentration, area closed
Experimental: as §3, §4

HGF = assay: Wound healing assay; format: cell-based, human; conditions: IC25 concentration, area closed
Experimental: as §3, §4

Hep-2 [5] = assay: Wound healing assay; format: cell-based, human; conditions: IC25 concentration, area closed
Experimental: as §3, §4

KB [6] = assay: Wound healing assay; format: cell-based, human; conditions: IC25 concentration, area closed
Experimental: as §3, §4

SCC-9 [7] = assay: Wound healing assay; format: cell-based, human; conditions: IC25 concentration, area closed
Experimental: as §3, §4

TR146 [8] = assay: Wound healing assay; format: cell-based, human; conditions: IC25 concentration, area closed
Experimental: as §3, §4

[9] = test system: NF-κB in THP1-Blue NF-κB cells; assay: NF-κB activity assay (SEAP reporter, LPS-induced); format: cell-based; conditions: LPS 10 ng/mL
Experimental: THP1-Blue NF-κB cells, NF-κB secreted embryonic alkaline phosphatase (SEAP) reporter monocytes (InvivoGen, USA), were assayed after 20–24 h of incubation following the manufacturer’s protocol. Briefly, cells were seeded at 1 × 10^6 cells/mL in RPMI medium in 96-well plates (180 μL) and treated with complex 3 or 4, Lipopolysaccharide (LPS) (10 ng/mL; […] The next day, NF-κB activation was assessed via the secretion of SEAP. Supernatants (20 μL) were transferred to 96-well plates, and 180 μL of Quanti-Blue was added. Plates were incubated for 2 h at 37°C, and absorbance was measured at 600 nm using an […] 200 PRO microplate reader (TECAN, Switzerland).

THP1-Blue NF-κB cells = assay: MTT viability assay of THP1-Blue NF-κB cells; format: cell-based; conditions: concentrations of the NF-κB activity assay, overnight
Experimental: A total of 20 μL of sterile filtered MTT (Sigma-Aldrich, Merck, Germany) solution (5 mg/mL in PBS) was added to the remaining overnight culture of THP1-Blue NF-κB cells from the above NF-κB activity assay in 96-well plates, which were incubated at 37°C (see above). After 2 h of incubation at 37°C, the supernatant was removed, and the purple formazan product generated in the cells was dissolved by the addition of 100 μL of DMSO to each well. The plates were then gently shaken for 30 s at room temperature to dissolve the precipitates. The absorbance was measured at 570 nm using an […] 200 PRO microplate reader (TECAN, Switzerland) ([43]).

[10] = CAL 27, 24 h, read-out: IC50 24h
[11] = CAL 27, 48 h, read-out: IC50 48h
[12] = CAL 27, 72 h, read-out: IC50 72h
[13] = Hep-2, 24 h, read-out: IC50 24h
[14] = Hep-2, 48 h, read-out: IC50 48h
[15] = Hep-2, 72 h, read-out: IC50 72h
[16] = SCC-9, 24 h, read-out: IC50 24h
[17] = SCC-9, 48 h, read-out: IC50 48h
[18] = SCC-9, 72 h, read-out: IC50 72h
[19] = TR146, 24 h, read-out: IC50 24h
[20] = TR146, 48 h, read-out: IC50 48h
[21] = TR146, 72 h, read-out: IC50 72h

Cc1ccc(C(C)C)cc1.Cc1ccc(C(C)C)cc1.O=C1C(=Cc2ccnc3ccccc23)COCC1=Cc1ccnc2ccccc12.[Cl][Ru][Cl].[Cl][Ru][Cl] [Complex 3]
IC50 (CAL 27; [10]): 22.5 ± 1.08 µM
IC50 (CAL 27; [11]): 12.9 ± 2.56 µM
IC50 (CAL 27; [12]): 6.35 ± 1.75 µM
IC50 (Hep-2 [1]; [13]): 12.7 µM
IC50 (Hep-2 [1]; [14]): 11.1 ± 0.32 µM
IC50 (Hep-2 [1]; [15]): 5.15 ± 0.07 µM
IC50 (KB [2]; 24 h, read-out: IC50 24h): 14.3 µM
IC50 (KB [2]; 48 h, read-out: IC50 48h): 10.5 ± 0.43 µM
IC50 (KB [2]; 72 h, read-out: IC50 72h): 3.7 ± 0.42 µM
IC50 (SCC-9 [3]; [16]): 4.7 µM
IC50 (SCC-9 [3]; [17]): 2.85 ± 0.01 µM
IC50 (SCC-9 [3]; [18]): 2.8 ± 0.01 µM
IC50 (TR146 [4]; [19]): 19.7 ± 4.82 µM
IC50 (TR146 [4]; [20]): 11.3 ± 0.78 µM
IC50 (TR146 [4]; [21]): 4.9 ± 0.42 µM
Wound area (%) (Detroit 562; Detroit 562, 24 h): 8 ± 2%
Wound area (%) (Detroit 562; Detroit 562, 48 h): 9 ± 3%
Wound area (%) (Detroit 562; Detroit 562, 55 h): less than 20%
Wound area (%) (Detroit 562; Detroit 562, 55 h, listed as C3): 10 ± 2%
Wound area (%) (FaDu; 24 h): 7 ± 1%
Wound area (%) (FaDu; 48 h): 9 ± 1%
Wound area (%) (FaDu; 55 h): less than 20%
Wound area (%) (FaDu; 55 h, listed as C3): 12 ± 1%
Wound area (%) (HGF; 24 h): 8 ± 3%
Wound area (%) (HGF; 48 h): 13 ± 5%
Wound area (%) (HGF; 55 h): 71 ± 2%
Wound area (%) (Hep-2 [5]; Hep-2, 24 h): 3 ± 1%
Wound area (%) (Hep-2 [5]; Hep-2, 48 h): 5 ± 1%
Wound area (%) (Hep-2 [5]; Hep-2, 55 h): less than 10%
Wound area (%) (Hep-2 [5]; Hep-2, 55 h, listed as C3): 7 ± 1%
Wound area (%) (KB [6]; 24 h): 7 ± 1%
Wound area (%) (KB [6]; 48 h): 13 ± 1%
Wound area (%) (KB [6]; 55 h): less than 20%
Wound area (%) (KB [6]; 55 h, listed as C3): 17 ± 2%
Wound area (%) (SCC-9 [7]; SCC-9, 24 h): 5 ± 2%
Wound area (%) (SCC-9 [7]; SCC-9, 48 h): 6 ± 2%
Wound area (%) (SCC-9 [7]; SCC-9, 55 h): less than 10%
Wound area (%) (SCC-9 [7]; SCC-9, 55 h, listed as C3): 7 ± 2%
Wound area (%) (TR146 [8]; TR146, 24 h): 3 ± 1%
Wound area (%) (TR146 [8]; TR146, 48 h): 4 ± 1%
Wound area (%) (TR146 [8]; TR146, 55 h): less than 10%
Wound area (%) (TR146 [8]; TR146, 55 h, listed as C3): 5 ± 1%
Reduction of LPS-induced NF-κB activation ([9]; 8 μM): approximately 80%
Cytotoxicity in THP1-Blue NF-κB cells (MTT) (THP1-Blue NF-κB cells): Neither complex 3, complex 4, nor curcumin exhibited significant cytotoxicity

Cc1ccc(C(C)C)cc1.Cc1ccc(C(C)C)cc1.O=C1C(=Cc2cccnc2)CCC1=Cc1cccnc1.[Cl][Ru][Cl].[Cl][Ru][Cl] [Complex 4]
IC50 (CAL 27; [10]): 27.1 ± 0.79 µM
IC50 (CAL 27; [11]): 16.1 ± 0.57 µM
IC50 (CAL 27; [12]): 33.3 ± 0.65 µM
IC50 (Hep-2 [1]; [13]): 88 ± 4.03 µM
IC50 (Hep-2 [1]; [14]): 21.2 ± 0.02 µM
IC50 (Hep-2 [1]; [15]): 37.65 ± 0.36 µM
IC50 (KB [2]; 24 h, read-out: IC50 24h): 20.8 ± 0.77 µM
IC50 (KB [2]; 48 h, read-out: IC50 48h): 25.2 ± 0.33 µM
IC50 (KB [2]; 72 h, read-out: IC50 72h): 30.3 ± 0.65 µM
IC50 (SCC-9 [3]; [16]): 14.3 µM
IC50 (SCC-9 [3]; [17]): 16.6 ± 0.71 µM
IC50 (SCC-9 [3]; [18]): 3.65 ± 0.4 µM
IC50 (TR146 [4]; [19]): 59.3 ± 3.24 µM
IC50 (TR146 [4]; [20]): 16.8 ± 0.81 µM
IC50 (TR146 [4]; [21]): 18.2 ± 1.07 µM
Wound area (%) (Detroit 562; Detroit 562, 24 h): 13 ± 7%
Wound area (%) (Detroit 562; Detroit 562, 48 h): 38 ± 11%
Wound area (%) (Detroit 562; Detroit 562, 55 h): 76 ± 2%
Wound area (%) (FaDu; 24 h): 24 ± 6%
Wound area (%) (FaDu; 48 h): 43 ± 10%
Wound area (%) (FaDu; 55 h): 61 ± 6%
Wound area (%) (HGF; 24 h): 13 ± 3%
Wound area (%) (HGF; 48 h): 47 ± 11%
Wound area (%) (HGF; 55 h): 91 ± 1%
Wound area (%) (Hep-2 [5]; Hep-2, 24 h): 9 ± 2%
Wound area (%) (Hep-2 [5]; Hep-2, 48 h): 23 ± 3%
Wound area (%) (Hep-2 [5]; Hep-2, 55 h): less than 50%
Wound area (%) (Hep-2 [5]; Hep-2, 55 h, listed as C4): 47 ± 2%
Wound area (%) (KB [6]; 24 h): 16 ± 4%
Wound area (%) (KB [6]; 48 h): 33 ± 4%
Wound area (%) (KB [6]; 55 h): less than 50%
Wound area (%) (KB [6]; 55 h, listed as C4): 44 ± 2%
Wound area (%) (SCC-9 [7]; SCC-9, 24 h): 17 ± 12%
Wound area (%) (SCC-9 [7]; SCC-9, 48 h): 37 ± 8%
Wound area (%) (SCC-9 [7]; SCC-9, 55 h): 55 ± 13%
Wound area (%) (TR146 [8]; TR146, 24 h): 3 ± 1%
Wound area (%) (TR146 [8]; TR146, 48 h): 5 ± 1%
Wound area (%) (TR146 [8]; TR146, 55 h): less than 15%
Wound area (%) (TR146 [8]; TR146, 55 h, listed as C4): 7 ± 1%
Reduction of LPS-induced NF-κB activation ([9]; 15 μM): about 70%
Cytotoxicity in THP1-Blue NF-κB cells (MTT) (THP1-Blue NF-κB cells): Neither complex 3, complex 4, nor curcumin exhibited significant cytotoxicity

Reference: paper PMC12754617, “Ruthenium-enhanced curcumin derivatives target tumor growth and cancer-related inflammation in head and neck cancer models” (Frontiers in Oncology, 2025)
